Laboratory results published in ChEMBL document CHEMBL1122713, “Isomeric N-methyl-7-deazaguanines: synthesis, structural assignment, and inhibitory activity on xanthine oxidase” (J Med Chem, 1984).

Biological target: Xanthine dehydrogenase/oxidase (Bos taurus, UniProt P80457)
Experiment: Compound is evaluated for competitive inhibition against xanthine oxidase from cow's milk

Xanthine dehydrogenase/oxidase, sequence (P80457 whole entry): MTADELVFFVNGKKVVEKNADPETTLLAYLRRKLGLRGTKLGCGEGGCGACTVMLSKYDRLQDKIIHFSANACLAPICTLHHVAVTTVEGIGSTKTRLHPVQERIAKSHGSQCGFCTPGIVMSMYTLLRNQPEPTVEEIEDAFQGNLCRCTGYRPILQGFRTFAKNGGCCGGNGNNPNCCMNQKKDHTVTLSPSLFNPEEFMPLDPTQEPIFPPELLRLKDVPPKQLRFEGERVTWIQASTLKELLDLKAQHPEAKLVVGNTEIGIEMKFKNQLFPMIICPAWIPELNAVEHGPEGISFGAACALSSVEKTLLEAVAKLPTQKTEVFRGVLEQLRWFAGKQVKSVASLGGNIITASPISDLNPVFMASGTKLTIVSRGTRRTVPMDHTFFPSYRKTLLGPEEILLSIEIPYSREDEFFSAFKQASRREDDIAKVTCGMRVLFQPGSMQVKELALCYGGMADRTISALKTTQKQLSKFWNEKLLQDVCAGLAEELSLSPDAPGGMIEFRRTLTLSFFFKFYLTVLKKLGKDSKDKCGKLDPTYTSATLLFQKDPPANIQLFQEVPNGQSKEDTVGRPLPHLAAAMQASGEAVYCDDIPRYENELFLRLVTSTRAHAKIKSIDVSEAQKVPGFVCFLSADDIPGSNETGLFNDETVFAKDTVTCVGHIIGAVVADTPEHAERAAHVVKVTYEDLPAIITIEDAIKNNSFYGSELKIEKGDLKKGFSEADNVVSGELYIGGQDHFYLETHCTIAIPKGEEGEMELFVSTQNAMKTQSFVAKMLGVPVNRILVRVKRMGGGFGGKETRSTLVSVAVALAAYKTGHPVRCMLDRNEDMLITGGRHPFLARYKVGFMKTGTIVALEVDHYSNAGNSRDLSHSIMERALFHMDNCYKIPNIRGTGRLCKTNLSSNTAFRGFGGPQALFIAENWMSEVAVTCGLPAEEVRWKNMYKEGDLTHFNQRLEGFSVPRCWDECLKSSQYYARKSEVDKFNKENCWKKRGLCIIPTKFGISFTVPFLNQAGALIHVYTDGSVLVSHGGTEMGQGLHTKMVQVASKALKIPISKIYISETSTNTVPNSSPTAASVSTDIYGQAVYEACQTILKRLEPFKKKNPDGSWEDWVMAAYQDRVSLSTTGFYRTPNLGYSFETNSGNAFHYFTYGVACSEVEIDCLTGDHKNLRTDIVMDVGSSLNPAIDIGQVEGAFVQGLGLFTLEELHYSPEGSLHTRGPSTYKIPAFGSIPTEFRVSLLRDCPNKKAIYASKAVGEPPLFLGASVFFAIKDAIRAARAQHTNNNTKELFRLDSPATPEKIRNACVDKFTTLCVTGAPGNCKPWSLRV

Ki | SMILES
4.5 µM | Cn1c(N)nc(O)c2ccnc1-2
3 µM | Cn1ccc2c(=O)[nH]c(N)nc21
40 µM | Cn1c(N)nc2nccc-2c1O
3 µM | Nc1nc2c(c(=O)[nH]1)CC=N2 [7-DEAZAGUANINE]
